Experimental data as given in PubChem BioAssay AID2060490 (Molecular Pharmacology Branch, DTP, NCI, 2025).

Test system: 885512-296-R-J2-PDC complex spheroid viability
Experiment: Anticancer human tumor 885512-296-R-J2-PDC patient-derived breast carcinoma cell line growth inhibition [GQUAD]
Conditions: for IC50: curve of first compound; for viability, T/C: stronger effect = lower value
In short: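 Multi-cell-type spheroids of tumor cells with HUVEC and mesenchymal stem cells, treated with drug combinations. Concentrations descend in half-log steps from near clinical Cmax, or from 10 microM where Cmax is unknown; viability read-out.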

[1] = second compound 0.0316 µM, first compound 0.0316 µM
[2] = second compound 0.0316 µM, first compound 0.1 µM
[3] = second compound 0.0316 µM, first compound 0.316 µM
[4] = second compound 0.0316 µM, first compound 1 µM
[5] = second compound 0.0316 µM, first compound 3.16 µM
[6] = second compound 0.0316 µM, first compound 10 µM
[7] = second compound 0.1 µM, first compound 0.0316 µM
[8] = second compound 0.1 µM, first compound 0.1 µM
[9] = second compound 0.1 µM, first compound 0.316 µM
[10] = second compound 0.1 µM, first compound 1 µM
[11] = second compound 0.1 µM, first compound 3.16 µM
[12] = second compound 0.1 µM, first compound 10 µM
[13] = second compound 0.316 µM, first compound 0.0316 µM
[14] = second compound 0.316 µM, first compound 0.1 µM
[15] = second compound 0.316 µM, first compound 0.316 µM
[16] = second compound 0.316 µM, first compound 1 µM
[17] = second compound 0.316 µM, first compound 3.16 µM
[18] = second compound 0.316 µM, first compound 10 µM
[19] = second compound 1 µM, first compound 0.0316 µM
[20] = second compound 1 µM, first compound 0.1 µM
[21] = second compound 1 µM, first compound 0.316 µM
[22] = second compound 1 µM, first compound 1 µM
[23] = second compound 1 µM, first compound 3.16 µM
[24] = second compound 1 µM, first compound 10 µM
[25] = second compound 3.16 µM, first compound 0.0316 µM
[26] = second compound 3.16 µM, first compound 0.1 µM
[27] = second compound 3.16 µM, first compound 0.316 µM
[28] = second compound 3.16 µM, first compound 1 µM
[29] = second compound 3.16 µM, first compound 3.16 µM
[30] = second compound 3.16 µM, first compound 10 µM
[31] = second compound 10 µM, first compound 0.0316 µM
[32] = second compound 10 µM, first compound 0.1 µM
[33] = second compound 10 µM, first compound 0.316 µM
[34] = second compound 10 µM, first compound 1 µM
[35] = second compound 10 µM, first compound 3.16 µM
[36] = second compound 10 µM, first compound 10 µM
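Further: spheroids exposed to the compounds for one week.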
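Wherever viability, T/C is given: percent of tumor spheroid viability relative to DMSO vehicle control wells.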

Question: How did the IC50 (second compound 0.0316 µM) turn out when `O=C(c1cc(Cc2n[nH]c(=O)c3ccccc23)ccc1F)N1CCN(C(=O)C2CC2)CC1` + CN(C)c1ccc(Nc2c3ccc(NC(=O)CCN4CCCC4)cc3nc3cc(NC(=O)CCN4CCCC4)ccc23)cc1 was run?
Answer: 7620 nM

Question: What about the IC50 (second compound 0.1 µM) of the same molecule?
Answer: 7900 nM

Question: What about the IC50 (second compound 0.316 µM) of the same molecule?
Answer: 7330 nM

Question: And the IC50 (second compound 1 µM)?
Answer: 7310 nM

Question: And the IC50 (second compound 3.16 µM)?
Answer: 5340 nM

Question: And the IC50 (second compound 10 µM)?
Answer: < 31.6 nM

Question: What about the viability, T/C [1] of the same molecule?
Answer: 105%

Question: And the viability, T/C [2]?
Answer: 103%

Question: What about the viability, T/C [3] of the same molecule?
Answer: 132%

Question: What about the viability, T/C [4] of the same molecule?
Answer: 139%

Question: And the viability, T/C [5]?
Answer: 117%

Question: And the viability, T/C [6]?
Answer: 29.2%

Question: What about the viability, T/C [7] of the same molecule?
Answer: 102%

Question: What about the viability, T/C [8] of the same molecule?
Answer: 94.9%

Question: And the viability, T/C [9]?
Answer: 119%

Question: And the viability, T/C [10]?
Answer: 145%

Question: And the viability, T/C [11]?
Answer: 120%

Question: What about the viability, T/C [12] of the same molecule?
Answer: 33%

Question: What about the viability, T/C [13] of the same molecule?
Answer: 93.7%

Question: And the viability, T/C [14]?
Answer: 110%

Question: And the viability, T/C [15]?
Answer: 118%

Question: And the viability, T/C [16]?
Answer: 131%

Question: And the viability, T/C [17]?
Answer: 123%

Question: What about the viability, T/C [18] of the same molecule?
Answer: 25.7%

Question: And the viability, T/C [19]?
Answer: 85.2%

Question: And the viability, T/C [20]?
Answer: 102%

Question: What about the viability, T/C [21] of the same molecule?
Answer: 116%

Question: What about the viability, T/C [22] of the same molecule?
Answer: 152%

Question: And the viability, T/C [23]?
Answer: 105%

Question: What about the viability, T/C [24] of the same molecule?
Answer: 29.1%

Question: What about the viability, T/C [25] of the same molecule?
Answer: 95%

Question: And the viability, T/C [26]?
Answer: 107%

Question: And the viability, T/C [27]?
Answer: 125%

Question: And the viability, T/C [28]?
Answer: 107%

Question: And the viability, T/C [29]?
Answer: 67.8%

Question: What about the viability, T/C [30] of the same molecule?
Answer: 28.7%

Question: What about the viability, T/C [31] of the same molecule?
Answer: 20.7%

Question: What about the viability, T/C [32] of the same molecule?
Answer: 23.3%

Question: What about the viability, T/C [33] of the same molecule?
Answer: 20.1%

Question: What about the viability, T/C [34] of the same molecule?
Answer: 19.2%

Question: What about the viability, T/C [35] of the same molecule?
Answer: 20.8%

Question: And the viability, T/C [36]?
Answer: 15.8%

Question: Which results are given for `CC1COCCN1c1cc(-c2ccnn2C)c2ccnc(-c3ccn[nH]3)c2n1` (stereo unspecified) + Cc1[nH]c2ccc(F)cc2c1-c1nc2c3cccnc3c3ncccc3c2[nH]1?
Answer: IC50 (second compound 0.0316 µM): < 31.6 nM; IC50 (second compound 0.1 µM): 36 nM; IC50 (second compound 0.316 µM): < 31.6 nM; IC50 (second compound 1 µM): < 31.6 nM; IC50 (second compound 3.16 µM): < 31.6 nM; IC50 (second compound 10 µM): < 31.6 nM; viability, T/C [1]: 44.6%; viability, T/C [2]: 7.14%; viability, T/C [3]: 3.23%; viability, T/C [4]: 2.97%; viability, T/C [5]: 4.21%; viability, T/C [6]: 7.57%; viability, T/C [7]: 55.6%; viability, T/C [8]: 5.92%; viability, T/C [9]: 3.53%; viability, T/C [10]: 3.59%; viability, T/C [11]: 5.52%; viability, T/C [12]: 6.77%; viability, T/C [13]: 37.9%; viability, T/C [14]: 3.68%; viability, T/C [15]: 2.99%; viability, T/C [16]: 2.87%; viability, T/C [17]: 5.08%; viability, T/C [18]: 7.25%; viability, T/C [19]: 5.35%; viability, T/C [20]: 3.41%; viability, T/C [21]: 2.46%; viability, T/C [22]: 2.67%; viability, T/C [23]: 5.38%; viability, T/C [24]: 5.76%; viability, T/C [25]: 1.59%; viability, T/C [26]: 1.58%; viability, T/C [27]: 1.11%; viability, T/C [28]: 1.8%; viability, T/C [29]: 3.23%; viability, T/C [30]: 3.81%; viability, T/C [31]: 1.17%; viability, T/C [32]: 1.15%; viability, T/C [33]: 1.51%; viability, T/C [34]: 2.19%; viability, T/C [35]: 2.68%; viability, T/C [36]: 4.02%

Question: With `Cn1ncnc1[C@H]1c2n[nH]c(=O)c3cc(F)cc(c23)N[C@@H]1c1ccc(F)cc1` + Cc1[nH]c2ccc(F)cc2c1-c1nc2c3cccnc3c3ncccc3c2[nH]1 as the molecule, how does the IC50 (second compound 0.0316 µM) read?
Answer: 277 nM

Question: And the IC50 (second compound 0.1 µM)?
Answer: 234 nM

Question: What about the IC50 (second compound 0.316 µM) of the same molecule?
Answer: 220 nM

Question: What about the IC50 (second compound 1 µM) of the same molecule?
Answer: 106 nM

Question: What about the IC50 (second compound 3.16 µM) of the same molecule?
Answer: < 0.999 nM

Question: And the IC50 (second compound 10 µM)?
Answer: < 0.999 nM

Question: And the viability, T/C (second compound 0.0316 µM, first compound 0.000999 µM)?
Answer: 108%

Question: What about the viability, T/C (second compound 0.0316 µM, first compound 0.00316 µM) of the same molecule?
Answer: 84.1%

Question: And the viability, T/C (second compound 0.0316 µM, first compound 0.00999 µM)?
Answer: 89.5%

Question: What about the viability, T/C [1] of the same molecule?
Answer: 86.8%

Question: And the viability, T/C (second compound 0.0316 µM, first compound 0.0999 µM)?
Answer: 66.4%

Question: What about the viability, T/C [3] of the same molecule?
Answer: 46.8%

Question: And the viability, T/C (second compound 0.1 µM, first compound 0.000999 µM)?
Answer: 104%

Question: What about the viability, T/C (second compound 0.1 µM, first compound 0.00316 µM) of the same molecule?
Answer: 101%

Question: What about the viability, T/C (second compound 0.1 µM, first compound 0.00999 µM) of the same molecule?
Answer: 93.9%

Question: And the viability, T/C [7]?
Answer: 75.4%

Question: What about the viability, T/C (second compound 0.1 µM, first compound 0.0999 µM) of the same molecule?
Answer: 76.2%

Question: What about the viability, T/C [9] of the same molecule?
Answer: 41.1%

Question: And the viability, T/C (second compound 0.316 µM, first compound 0.000999 µM)?
Answer: 90.8%

Question: What about the viability, T/C (second compound 0.316 µM, first compound 0.00316 µM) of the same molecule?
Answer: 82.9%

Question: What about the viability, T/C (second compound 0.316 µM, first compound 0.00999 µM) of the same molecule?
Answer: 82.1%

Question: And the viability, T/C [13]?
Answer: 77.3%

Question: And the viability, T/C (second compound 0.316 µM, first compound 0.0999 µM)?
Answer: 67%

Question: And the viability, T/C [15]?
Answer: 42.1%

Question: And the viability, T/C (second compound 1 µM, first compound 0.000999 µM)?
Answer: 70.8%

Question: And the viability, T/C (second compound 1 µM, first compound 0.00316 µM)?
Answer: 79.3%

Question: And the viability, T/C (second compound 1 µM, first compound 0.00999 µM)?
Answer: 67.6%

Question: What about the viability, T/C [19] of the same molecule?
Answer: 57.7%

Question: And the viability, T/C (second compound 1 µM, first compound 0.0999 µM)?
Answer: 53.6%

Question: What about the viability, T/C [21] of the same molecule?
Answer: 34.6%

Question: And the viability, T/C (second compound 3.16 µM, first compound 0.000999 µM)?
Answer: 25.6%

Question: What about the viability, T/C (second compound 3.16 µM, first compound 0.00316 µM) of the same molecule?
Answer: 23.2%

Question: And the viability, T/C (second compound 3.16 µM, first compound 0.00999 µM)?
Answer: 17.1%

Question: What about the viability, T/C [25] of the same molecule?
Answer: 15.6%

Question: And the viability, T/C (second compound 3.16 µM, first compound 0.0999 µM)?
Answer: 13.8%

Question: What about the viability, T/C [27] of the same molecule?
Answer: 7.86%

Question: What about the viability, T/C (second compound 10 µM, first compound 0.000999 µM) of the same molecule?
Answer: 3.25%

Question: What about the viability, T/C (second compound 10 µM, first compound 0.00316 µM) of the same molecule?
Answer: 3.75%

Question: And the viability, T/C (second compound 10 µM, first compound 0.00999 µM)?
Answer: 8.84%

Question: What about the viability, T/C [31] of the same molecule?
Answer: 2.56%

Question: What about the viability, T/C (second compound 10 µM, first compound 0.0999 µM) of the same molecule?
Answer: 2.53%

Question: What about the viability, T/C [33] of the same molecule?
Answer: 2.11%
